Source: patent US10941157B2, “Pesticidal compositions and uses thereof” (Gilead Apollo, LLC, priority 2015, dated 2021)
≈ marks a conversion by molar mass, not a printed value. Read-outs that look alike come from different tables or passages of the source.

Tests used:
Fusarium graminearum = type: in vivo; conditions: spray on flowering Triticum aestivum cv. Samson, inoculated 24 hours after treatment, evaluated 14 days later
Botrtyis cinerea (Bc) = experiment: In vitro pathogen growth inhibition assay, Bc; type: cell-based; conditions: 48 h
Method in brief: (§1)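 Spores in 17% V8 liquid medium, or 1.5 mm Rs mycelial plugs in ¼ PDB, incubated with compound; final concentration checked by OD600 for precipitation. OD readings at 24 and 48 h, blank-subtracted, plus visual ratings; value is concentration giving ≥90% growth inhibition.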

[1] = test system: Phytophthora capsici (Pc); experiment: In vitro pathogen growth inhibition assay, Pc; type: cell-based; conditions: 48 h
Method in brief: as §1

Rhizoctonia solani (Rs) = experiment: In vitro pathogen growth inhibition assay, Rs (mycelial plugs); type: cell-based; conditions: mycelial plugs; for IC90: Rhizoctonia solani, 48 h
Method in brief: as §1

Puccinia triticina = experiment: Foliar protection test for wheat leaf rust control; type: in vivo; conditions: foliar application to wheat (Triticum aestivum cv. Winterhawk), evaluated 10 days later
Septoria tritici (St) = experiment: In vitro pathogen growth inhibition assay, St; type: cell-based; conditions: Zymoseptoria tritici, 48 h
Method in brief: as §1

Sphaerotheca fuliginea = experiment: Foliar protection for cucumber powdery mildew control; type: in vivo; conditions: foliar spray on Cucumis sativus cv. Straight Eight, inoculated 24 hours after treatment, evaluated 7 days later
Procedure: Plants (Cucumis sativus cv. Straight Eight) were grown for 10 days in 2.5-inch square pots containing Metromix 200 medium amended with fertilizer. For propagation, plants were maintained in a growth chamber at conditions of 23 to 27° C., 16 hour light cycle, ambient humidity, and with sub-irrigation as needed. After inoculation with the pathogen of Sphaerotheca fuliginea, plants were kept at conditions of 23 to 27° C., 16 hour light cycle, 60% relative humidity, and with sub-irrigation as needed to facilitate infection and disease development. […] An atomizer was used for applying the solution onto both sides of the leaves until thoroughly wetted. […] At 24 hours after treatment, the plants were moved to a cooler chamber and inoculated by shaking well-colonized, untreated stock plants above the treated plants. This allowed producing a settling cloud of spores and resulting in uniform infection. Inoculated plants were kept near other sporulating stock plants to allow for infection of newly emerging leaves. Efficacy was evaluated in 7 days later by examining leaves for colonization and growth of mildew. Table 5 lists the results of cucumber powdery mildew control at a compound concentration of 10 ppm or lower.

[2] = test system: Mycosphaerella graminicola (synthetic Septoria tritici); experiment: Foliar protection test for wheat septoria leaf blotch control; type: in vivo; conditions: foliar spray on Triticum aestivum cv. WinterHawk, inoculated 1 hour after treatment, evaluated 16 days later
[3] = test system: Fusarium virguliforme (Fv); experiment: In vitro pathogen growth inhibition assay, Fv; type: cell-based
Method in brief: as §1

[4] = test system: Collectotrichum graminicola (Cg); experiment: In vitro pathogen growth inhibition assay, Cg; type: cell-based; conditions: 48 h
Method in brief: as §1

Diplodia maydis (Dm) = experiment: In vitro pathogen growth inhibition assay, Dm; type: cell-based; conditions: Stenocarpella maydis, 48 h
Method in brief: as §1

[5] = test system: Blumeria graminis f. sp. hordei; experiment: Foliar protection test for barley powdery mildew control; type: in vivo; conditions: foliar spray on Hordeum vulgare cv. Perry, inoculated 24 hours after treatment, evaluated 7 days later
Procedure: Plants (Hordeum vulgare cv. Perry) were grown for 6 days in 2-inch square pots containing Metromix 200 medium amended with fertilizer. […] After inoculation with the pathogen of Blumeria graminis f. sp. hordei, plants were kept at conditions of 20 to 22° C., 70% relative humidity, and 200 uM of light to facilitate infection and disease development. […] An atomizer was used for applying the solution onto both sides of the leaves until thoroughly wetted. […] At 24 hours after treatment, the plants were moved to a cooler chamber and inoculated by shaking well-colonized, untreated stock plants above the treated plants. This allowed producing a settling cloud of spores and resulting in uniform infection. Efficacy was evaluated in 7 days later by examining leaves for colonization and growth of mildew. Table 4 lists the results of barley powdery mildew control at a compound concentration of 10 ppm or lower.

Phakopsora pachyrhizi = experiment: Foliar protection test for Asian soybean rust control; type: in vivo; conditions: foliar application to soybean (Glycine max AG4832), percent disease area evaluated 14 days later
[6] = test system: Fusarium moniliforme (Fm); experiment: In vitro pathogen growth inhibition assay, Fm; type: cell-based; conditions: Fusarium verticillioides
Method in brief: as §1

[7] = ≥90% inhibition, 48 hours vs 2% DMSO control, read-out: Compound Concentration (ppm) sufficient for ≥90% inhibition of growth, Bc
[8] = ≥90% inhibition, 48 hours vs 2% DMSO control, read-out: Compound Concentration (ppm) sufficient for ≥90% inhibition of growth, Pc
[9] = ≥90% inhibition, 48 hours vs 2% DMSO control, read-out: Compound Concentration (ppm) sufficient for ≥90% inhibition of growth, Rs
[10] = ≥90% inhibition, 48 hours vs 2% DMSO control, read-out: Compound Concentration (ppm) sufficient for ≥90% inhibition of growth, St
[11] = ≥90% inhibition, 48 hours vs 2% DMSO control, read-out: Compound Concentration (ppm) sufficient for ≥90% inhibition of growth, Fv
[12] = ≥90% inhibition, 48 hours vs 2% DMSO control, read-out: Compound Concentration (ppm) sufficient for ≥90% inhibition of growth, Cg
[13] = ≥90% inhibition, 48 hours vs 2% DMSO control, read-out: Compound Concentration (ppm) sufficient for ≥90% inhibition of growth, Dm
[14] = ≥90% inhibition, 48 hours vs 2% DMSO control, read-out: Compound Concentration (ppm) sufficient for ≥90% inhibition of growth, Fm
[15] = ≥90% growth inhibition, 48 hours, vs 2% DMSO control, read-out: Compound Concentration (ppm) sufficient for ≥90% inhibition of St
[16] = ≥90% growth inhibition, 48 hours, vs 2% DMSO control, read-out: Compound Concentration (ppm) sufficient for ≥90% inhibition of Fm

Compound	Wheat Fusarium Head Blight Control at a compound concentration of 25 ppm or lower (Fusarium graminearum)	IC90 (Botrtyis cinerea (Bc); [7])	IC90 [1, 8]	IC90 (Rhizoctonia solani (Rs); [9])	Wheat Leaf Rust Control at a compound concentration of 10 ppm or lower (Puccinia triticina)	IC90 (Septoria tritici (St); [10])	Cucumber Powdery Mildew Control at a compound concentration of 10 ppm or lower (Sphaerotheca fuliginea)	Septoria Leaf Blotch Control at a compound concentration of 25 ppm or lower [2]	IC90 [3, 11]	IC90 [4, 12]	IC90 (Diplodia maydis (Dm); [13])	Barley Powdery Mildew Control at a compound concentration of 10 ppm or lower [5]	Asian Soybean Rust Control at a compound concentration of 25 ppm or lower (Phakopsora pachyrhizi)	IC90 [6, 14]	IC90 (Septoria tritici (St); [15])	IC90 [6, 16]	also measured
COc1ccc(F)cc1[C@H](Cn1c(=O)n(C(C)(C)C(=O)NC(C)C)c(=O)c2c(C)c(-n3nccn3)sc21)OC1CCOCC1 [Compound I-030, (R)-2-(1-(2-(5-fluoro-2-methoxyphenyl)-2-((tetrahydro-2H-pyran-4-yl)oxy)ethyl)-5-methyl-2,4-dioxo-6-(2H-1,2,3-triazol-2-yl)-1,4-dihydrothieno[2,3-d]pyrimidin-3 (2H)-yl)-N-isopropyl-2-methylpropanamide]	B (from 50 to 69% control of wheat fusarium head blight)	0.4 µg/mL (≈ 0.636 µM)	50 µg/mL (≈ 79.5 µM)	0.08 µg/mL (≈ 0.127 µM)	AA (≥85% control of wheat leaf rust)	≥ 2 µg/mL	AA (≥85% control of cucumber powdery mildew)	B (from 50 to 69% control of wheat septoria leaf blotch)	0.4 µg/mL (≈ 0.636 µM)	0.4 µg/mL (≈ 0.636 µM)	≥ 0.4 µg/mL	AA (≥85% control of barley powdery mildew)	A (from 70% to 84% control of Asian soybean rust)	0.08 µg/mL (≈ 0.127 µM)			
COc1ccccc1[C@H](Cn1c(=O)n(C(C)(C)C(=O)N2CCCC2)c(=O)c2c(C)c(-n3nccn3)sc21)OC1CCOCC1 [Compound I-034, (R)-1-(2-(2-methoxyphenyl)-2-((tetrahydro-2H-pyran-4-yl)oxy)ethyl)-5-methyl-3-(2-methyl-1-oxo-1-(pyrrolidin-1-yl)propan-2-yl)-6-(2H-1,2,3-triazol-2-yl)thieno[2,3-d]pyrimidine-2,4(1H,3H)-dione]	C (from 25 to 49% control of wheat fusarium head blight)	0.4 µg/mL (≈ 0.642 µM)	≥ 10 µg/mL	0.08 µg/mL (≈ 0.128 µM)	AA (≥85% control of wheat leaf rust)	≥ 2 µg/mL	AA (≥85% control of cucumber powdery mildew)	B (from 50 to 69% control of wheat septoria leaf blotch)	0.4 µg/mL (≈ 0.642 µM)	≥ 0.4 µg/mL	≥ 0.4 µg/mL	AA (≥85% control of barley powdery mildew)	AA (≥85% control of Asian soybean rust)	0.08 µg/mL (≈ 0.128 µM)			
CCOC(=O)c1sc2c(c1C)c(=O)n([C@H](C)C(=O)NC(C)C)c(=O)n2C[C@H](OCCC#N)c1cc(F)ccc1OC [Compound I-220, (R)-ethyl-1-(2-(2-cyanoethoxy)-2-(5-fluoro-2-methoxyphenyl)ethyl)-3-((R)-1-(isopropylamino)-1-oxopropan-2-yl)-5-methyl-2,4-dioxo-1,2,3,4-tetrahydrothieno[2,3-d]pyrimidine-6-carboxylate]	C (from 25 to 49% control of wheat fusarium head blight)				C (from 25 to 49% control of wheat leaf rust)		AA (≥85% control of cucumber powdery mildew)	B (from 50 to 69% control of wheat septoria leaf blotch)				AA (≥85% control of barley powdery mildew)	B (from 50 to 69% control of Asian soybean rust)		> 50 µg/mL	0.08 µg/mL (≈ 0.136 µM)	Compound Concentration (ppm) sufficient for ≥90% inhibition of Rs (Rhizoctonia solani (Rs); ≥90% growth inhibition, 48 hours, vs 2% DMSO control): 0.08 ppm; IC90 ([3]; ≥90% growth inhibition, 48 hours, vs 2% DMSO control, read-out: Compound Concentration (ppm) sufficient for ≥90% inhibition of Fv): 0.4 µg/mL (≈ 0.68 µM)
COCCO[C@@H](Cn1c(=O)n([C@H](C)C(=O)NC(C)C)c(=O)c2c(C)c(-n3cccn3)sc21)c1cc(F)ccc1OC [Compound I-310, (R)-2-(1-((R)-2-(5-fluoro-2-methoxyphenyl)-2-(2-methoxyethoxy)ethyl)-5-methyl-2,4-dioxo-6-(1H-pyrazol-1-yl)-1,4-dihydrothieno[2,3-d]pyrimidin-3 (2H)-yl)-N-isopropylpropanamide]	C (from 25 to 49% control of wheat fusarium head blight)				C (from 25 to 49% control of wheat leaf rust)		AA (≥85% control of cucumber powdery mildew)	B (from 50 to 69% control of wheat septoria leaf blotch)				AA (≥85% control of barley powdery mildew)	C (from 25 to 49% control of Asian soybean rust)		> 50 µg/mL	0.08 µg/mL (≈ 0.136 µM)	IC90 (Botrtyis cinerea (Bc); ≥90% growth inhibition, 48 hours, vs 2% DMSO control, read-out: Compound Concentration (ppm) sufficient for ≥90% inhibition of Bc): 2 µg/mL (≈ 3.4 µM); IC90 ([1]; ≥90% growth inhibition, 48 hours, vs 2% DMSO control, read-out: Compound Concentration (ppm) sufficient for ≥90% inhibition of Pc): > 50 µg/mL; IC90 (Rhizoctonia solani (Rs); ≥90% growth inhibition, 48 hours, vs 2% DMSO control, read-out: Compound Concentration (ppm) sufficient for ≥90% inhibition of Rs): 0.08 µg/mL (≈ 0.136 µM); IC90 ([4]; ≥90% growth inhibition, 48 hours, vs 2% DMSO control, read-out: Compound Concentration (ppm) sufficient for ≥90% inhibition of Cg): 2 µg/mL (≈ 3.4 µM); IC90 (Diplodia maydis (Dm); ≥90% growth inhibition, 48 hours, vs 2% DMSO control, read-out: Compound Concentration (ppm) sufficient for ≥90% inhibition of Dm): ≥ 2 µg/mL
